Measured values from publication PMC12860872, “Preclinical evaluation of DOTAGA.Glu.(FAPI)2 and DO3A.Glu.(FAPI)2 as theranostics with human dosimetry extrapolation to lutetium-177 and terbium-161 analogs” (European Journal of Nuclear Medicine and Molecular Imaging, 2025).
Where “and” joins values, the source holds several entries; their conditions need not be identical. Equal values may be shown once.

Assay: Extrapolated human dosimetry (OLINDA/EXM, ICRP-89 phantoms)
Parameters: TIAC average pancreas: unit not given beside the values; TIAC average stomach / TIAC average Small Intestine / TIAC average Left Column / TIAC average Rectum / TIAC average adrenal / TIAC average bone / TIAC average Red marrow / TIAC average salivary glands / TIAC average ROB / TIAC average Total Frac IA / TIAC average heart content / TIAC average heart wall / TIAC average liver / TIAC average spleen / TIAC average lung / TIAC average kidney: unit not given here
Procedure: To address inter-animal variability, the TIACs for each source organ were calculated from both the mean nTACs and the nTACs obtainend from fitting the mean ± 1 standard deviation (SD) of the normalized time-activity data, providing upper and lower bounds.
The mice-to-human TIAC extrapolation accounted for species-specific differences in relative source organ masses, m(organ), as compared to the total body weight (WB), for the mice (m) and human (h) models respectively.
(§1) The human organ masses, m(organ)h, were obtained from ICRP-89 adult male and female reference phantoms, while the murine organ masses, m(organ)m, were derived from the standard MOBY mouse model. The extrapolated human TIACs, TIACh were entered in the OLINDA/EXM software to compute the absorbed doses to target organs and the effective dose for adult male, female, and gender-averaged human models. […]
The TIACs, for [177Lu]Lu-DOTAGA.Glu.(FAPI)2 and [177Lu]Lu-DO3A.Glu.(FAPI)2, were determined by time integration of the nTACs. To account for the inter-animal variability, the TIACs for each source organ were calculated using both the mean nTACs and the nTACs obtainend from fitting the mean ±1 standard deviation (SD) of the normalized time-activity data. This approach provided the upper and the lower bounds for the estimated TIACs.
The mice-to-human TIAC extrapolation was obtained considering the different (species-specific) relative source organ masses, m(organ), as compared to the total body weight (WB), for the mice (m) and human (h) models respectively.
as §1, with “the” for “ICRP-89”, “models phantoms defined in ICRP-89,” for “phantoms,”, “TIACs values, TIACh, for each source organ” for “TIACs, TIACh”, “input into the kinetic module of” for “entered in”, “software (version 2.1, HERMES Medical Solutions AB, Stockholm, Sweden)” for “software”

[1] = ICRP 89 Adult Female, extrapolated
[2] = ICRP 89 Adult Male, extrapolated
[3] = human extrapolation, male-female range

In the case of `N#C[C@@H]1CC(F)(F)CN1C(=O)CNC(=O)c1ccnc2ccc(OCCCCNC(=O)CC[C@H](NC(=O)CCC(C(=O)O)N3CCN(CC(=O)[O-])CCN(CC(=O)[O-])CCN(CC(=O)[O-])CC3)C(=O)NCCCCOc3ccc4nccc(C(=O)NCC(=O)N5CC(F)(F)C[C@H]5C#N)c4c3)cc12.[177Lu+3]` (stereo partly shown) [[^177Lu]Lu-DOTAGA.Glu.(FAPI)2], the “Absorbed dose (AD average) Adrenals” value [1] is reported as 1.46E-02 mGy/Mbq, the “Absorbed dose (AD average) Brain” value [1] is reported as 2.94E-02 mGy/Mbq and the “Absorbed dose (AD average) Breasts” value [1] is reported as 2.88E-02 mGy/Mbq. The “Absorbed dose (AD average) Esophagus” value [1] was 3.06E-02 mGy/Mbq, the “Absorbed dose (AD average) Eyes” value [1] was 2.94E-02 mGy/Mbq and the “Absorbed dose (AD average) Gallbladder Wall” value [1] was 3.30E-02 mGy/Mbq. For the same molecule, the “Absorbed dose (AD average) Heart Wall” value [1] was 4.42E-02 mGy/Mbq, the “Absorbed dose (AD average) Kidneys” value [1] was 4.97E-02 ± 0.002 mGy/Mbq and 4.97E-02 mGy/Mbq and the “Absorbed dose (AD average) Left colon” value [1] was 1.05E-01 mGy/Mbq. For the same molecule, the “Absorbed dose (AD average) Liver” value [1] was 2.00E-01 ± 0.02 mGy/Mbq and 2.00E-01 mGy/Mbq, the “Absorbed dose (AD average) Lungs” value [1] was 4.59E-02 ± 0.004 mGy/Mbq and 4.59E-02 mGy/Mbq and the “Absorbed dose (AD average) Osteogenic Cells” value [1] was 8.92E-02 ± 0.01 mGy/Mbq and 8.92E-02 mGy/Mbq. The “Absorbed dose (AD average) Ovaries” value [1] was 3.09E-02 mGy/Mbq, the “Absorbed dose (AD average) Pancreas” value [1] was 3.90E-02 ± 0.002 mGy/Mbq and 3.90E-02 mGy/Mbq and the “Absorbed dose (AD average) Rectum” value [1] was 1.07E-01 mGy/Mbq. The “Absorbed dose (AD average) Red Marrow” value [1] was 3.24E-02 ± 0.003 mGy/Mbq and 3.24E-02 mGy/Mbq, the “Absorbed dose (AD average) Right colon” value [1] was 6.88E-02 mGy/Mbq and the “Absorbed dose (AD average) Salivary Glands” value [1] was 1.26E-01 ± 0.004 mGy/Mbq and 1.26E-01 mGy/Mbq. For the same molecule, the “Absorbed dose (AD average) Small Intestine” value [1] was 5.84E-02 ± 0.02 mGy/Mbq and 5.84E-02 mGy/Mbq, the “Absorbed dose (AD average) Spleen” value [1] was 3.53E-02 ± 0.01 mGy/Mbq and 3.53E-02 mGy/Mbq and the “Absorbed dose (AD average) Stomach Wall” value [1] was 4.24E-02 mGy/Mbq. The “Absorbed dose (AD average) Thymus” value [1] was 3.04E-02 mGy/Mbq, the “Absorbed dose (AD average) Thyroid” value [1] was 2.95E-02 mGy/Mbq and the “Absorbed dose (AD average) Total Body” value [1] was 4.42E-02 ± 0.01 mGy/Mbq and 4.42E-02 mGy/Mbq. For the same molecule, the “Absorbed dose (AD average) Urinary Bladder Wall” value [1] was 3.05E-02 mGy/Mbq, the “Absorbed dose (AD average) Uterus” value [1] was 3.10E-02 mGy/Mbq and the “Effective dose (average)” value [1] was 4.71E-02. For the same molecule, the “Absorbed dose (AD average) Adrenals” value [2] was 1.17E-02 mGy/Mbq, the “Absorbed dose (AD average) Brain” value [2] was 1.98E-02 mGy/Mbq and the “Absorbed dose (AD average) Esophagus” value [2] was 2.11E-02 mGy/Mbq. The “Absorbed dose (AD average) Eyes” value [2] was 1.97E-02 mGy/Mbq, the “Absorbed dose (AD average) Gallbladder Wall” value [2] was 2.49E-02 mGy/Mbq and the “Absorbed dose (AD average) Heart Wall” value [2] was 3.66E-02 mGy/Mbq. For the same molecule, the “Absorbed dose (AD average) Kidneys” value [2] was 4.08E-02 ± 0.002 mGy/Mbq and 4.08E-02 mGy/Mbq, the “Absorbed dose (AD average) Left colon” value [2] was 8.56E-02 mGy/Mbq and the “Absorbed dose (AD average) Liver” value [2] was 1.64E-01 ± 0.01 mGy/Mbq and 1.64E-01 mGy/Mbq. For the same molecule, the “Absorbed dose (AD average) Lungs” value [2] was 3.74E-02 ± 0.003 mGy/Mbq and 3.74E-02 mGy/Mbq, the “Absorbed dose (AD average) Osteogenic Cells” value [2] was 9.26E-02 ± 0.01 mGy/Mbq and 9.26E-02 mGy/Mbq and the “Absorbed dose (AD average) Pancreas” value [2] was 3.11E-02 ± 0.002 mGy/Mbq and 3.11E-02 mGy/Mbq. The “Absorbed dose (AD average) Prostate” value [2] was 2.04E-02 mGy/Mbq, the “Absorbed dose (AD average) Rectum” value [2] was 8.54E-02 mGy/Mbq and the “Absorbed dose (AD average) Red Marrow” value [2] was 2.38E-02 ± 0.002 mGy/Mbq and 2.38E-02 mGy/Mbq. The “Absorbed dose (AD average) Right colon” value [2] was 5.39E-02 mGy/Mbq, the “Absorbed dose (AD average) Salivary Glands” value [2] was 1.03E-01 ± 0.004 mGy/Mbq and 1.03E-01 mGy/Mbq and the “Absorbed dose (AD average) Small Intestine” value [2] was 4.17E-02 ± 0.01 mGy/Mbq and 4.17E-02 mGy/Mbq. The “Absorbed dose (AD average) Spleen” value [2] was 2.87E-02 ± 0.01 mGy/Mbq and 2.87E-02 mGy/Mbq, the “Absorbed dose (AD average) Stomach Wall” value [2] was 3.05E-02 mGy/Mbq and the “Absorbed dose (AD average) Testes” value [2] was 1.95E-02 mGy/Mbq. The “Absorbed dose (AD average) Thymus” value [2] was 2.03E-02 mGy/Mbq, the “Absorbed dose (AD average) Thyroid” value [2] was 2.02E-02 mGy/Mbq and the “Absorbed dose (AD average) Total Body” value [2] was 3.25E-02 ± 0.003 mGy/Mbq and 3.25E-02 mGy/Mbq. For the same molecule, the “Absorbed dose (AD average) Urinary Bladder Wall” value [2] was 2.03E-02 mGy/Mbq, the “Effective dose (average)” value (ICRP 89 Adult Male, extrapolated, in mSv/MBq (unit assumed)) was 3.40E-02 and the absorbed dose kidneys [3] was 0.04–0.05 Gy/GBq. The absorbed dose liver [3] was 0.16–0.20 Gy/GBq, the “absorbed dose salivary glands” value [3] was 0.10–0.13 Gy/GBq and the “total body and effective doses” value [3] was 0.033–0.044 Gy/GBq. The “TIAC average Left Column” value (human female, extrapolated) was 0.1373, the “TIAC average ROB” value (human female, extrapolated) was 18.6076 and the “TIAC average Rectum” value (human female, extrapolated) was 0.1420. For the same molecule, the “TIAC average Red marrow” value (human female, extrapolated) was 0.2030, the “TIAC average Small Intestine” value (human female, extrapolated) was 0.1803 and the “TIAC average Total Frac IA” value (human female, extrapolated) was 25.6850. For the same molecule, the TIAC average adrenal (human female, extrapolated) was 0.0011, the TIAC average bone (human female, extrapolated) was 4.9073 and the “TIAC average heart content” value (human female, extrapolated) was 0.0834. For the same molecule, the “TIAC average heart wall” value (human female, extrapolated) was 0.0889, the TIAC average kidney (human female, extrapolated) was 0.1445 and the TIAC average liver (human female, extrapolated) was 3.1244. For the same molecule, the TIAC average lung (human female, extrapolated) was 0.4651, the TIAC average pancreas (human female, extrapolated) was 0.0460 and the “TIAC average salivary glands” value (human female, extrapolated) was 0.1012. For the same molecule, the TIAC average spleen (human female, extrapolated) was 0.0480, the TIAC average stomach (human female, extrapolated) was 0.0626 and the “TIAC average Left Column” value (human male, extrapolated) was 0.1129. The “TIAC average ROB” value (human male, extrapolated) was 15.0586, the “TIAC average Rectum” value (human male, extrapolated) was 0.1129 and the “TIAC average Red marrow” value (human male, extrapolated) was 0.2169. The “TIAC average Small Intestine” value (human male, extrapolated) was 0.1684, the “TIAC average Total Frac IA” value (human male, extrapolated) was 25.6850 and the TIAC average adrenal (human male, extrapolated) was 0.0009. The TIAC average bone (human male, extrapolated) was 5.5459, the “TIAC average heart content” value (human male, extrapolated) was 0.0945 and the “TIAC average heart wall” value (human male, extrapolated) was 0.0965. The TIAC average kidney (human male, extrapolated) was 0.1339, the TIAC average liver (human male, extrapolated) was 3.3017 and the TIAC average lung (human male, extrapolated) was 0.4829. The TIAC average pancreas (human male, extrapolated) was 0.0441, the “TIAC average salivary glands” value (human male, extrapolated) was 0.1010 and the TIAC average spleen (human male, extrapolated) was 0.0456. It also gave a TIAC average stomach (human male, extrapolated) of 0.0557.
